# Laboratory results: US20230279346A1, “METHODS OF DIFFERENTIATION TO NEURONAL CELLS AND KITS THEREFOR” (priority 2016, published 2023)
# How the values were obtained:
# H9 ESC-derived NSCs [1] = assay: Cell toxicity during differentiation of NSCs; type: cell-based, human; conditions: 160 micromolar
# From the text: (§3) Cells cultured in differentiation medium without the presence of the gamma-secretase inhibitor served as a control. In the test groups, cells were separately differentiated in the presence of Compound E at 0.2 micromolar, YO-01027 at concentrations of 0.3 micromolar, 1.5 micromolar and 7.5 micromolar, LY411575 at concentrations of 0.01 micromolar, 0.05 micromolar, 0.25 micromolar, 0.5 micromolar, 1.0 micromolar and 2.0 micromolar, and MK-0752 at concentrations of 0.8 micromolar, 4 micromolar, 20 micromolar, 40 micromolar and at 80 micromolar. Eight wells were tested for each concentration of each inhibitor.
# At the end of a two week period of differentiation, the area of cell clumps was calculated for each test well using the [sequence]
# H9 ESC-derived NSCs [2] = assay: Cell clump area after neuronal differentiation (INCUCYTE ZOOM System); type: cell-based, human; conditions: for cell clumping vs control group (cell clump area, FIG. 6): two weeks, Compound E 0.2, YO-01027 0.3, LY411575 0.25, MK-0752 20 micromolar, p<0.01
# Procedure: Also, at the end of that two week period of differentiation, the area of cell clumps was calculated using the [sequence] ZOOM™ System (Essen BioScience, Ann Arbor Mich.) by defining the area of cell mass ≥10,000 μm^2 as a cell clump.
# as §3
# At the end of a two week period of differentiation, the area of cell clumps was calculated for each test well using the [sequence] ZOOM™ System (Essen BioScience, Ann Arbor Mich.) by defining the area of cell mass ≥10,000 μm2 as a cell clump and the data plotted in FIG. 6.
# H9 ESC-derived NSCs [3] = assay: Immunofluorescent image analysis: cells positive for HuC/D and negative for SOX1; type: cell-based, human
# From the text: as §3
# H9 ESC-derived NSCs [4] = assay: EdU incorporation proliferation assay (CLICK-IT EdU); type: cell-based, human; conditions: Day 6 of differentiation, EdU 24 h; 0.2 micromolar
# Procedure: (§1) Differentiation of H9 ESC-derived NSCs was the same as for Example 2. At Day 6 of differentiation, cells were incubated with the nucleoside thymidine analog EdU for 24 h. EdU is incorporated into DNA during active DNA synthesis with the result that proliferating cells become labeled. EdU positive cells were detected using the CLICK-IT™ EdU Alexa FLUOR™ 488 HCS Assay (Cat. No. C10350, Thermo Fisher Scientific, Waltham Mass.) according to the manufacturer's protocols. Cells were then fixed with 4% paraformaldehyde and stained with antibodies against the apoptotic cell death marker caspase 9 (polyclonal, Cat. No. PA5-16358, Thermo Fisher Scientific, Waltham Mass.) according to the manufacturer's protocol.
# H9 ESC-derived NSCs [5] = assay: Caspase 9 staining for apoptotic cell death; type: cell-based, human; conditions: six days of differentiation; 0.2 micromolar
# Procedure: as §1
# NSC cultures = assay: CYQUANT Direct Cell Proliferation Assay; type: cell-based
# Procedure: The proliferation and electrophysiology of cells resulting from differentiation in the presence of Compound E were compared to NSC control cultures. NSC cultures were plated at 20,000 cells per well on Day 0.
# The CYQUANT™ Direct Cell Proliferation Assay (Molecular Probes Cat. No. C35011, Eugene Oreg.) was used to provide quantitation of proliferation at Day 4 and Day 7 of culture.
# [6] = system: primary rat cortical neuronal cells; assay: Differentiation of primary rat cortical neuronal cells, GFAP and HuC&D staining; type: cell-based; conditions: two weeks of differentiation
# From the text: Cryopreserved primary rat cortical neuronal cells (Cat. No. A1084001, Thermo Fisher Scientific, Waltham Mass.), which had been isolated from rodent embryonic brain, were thawed and plated on poly-D-lysine 96-well plates (Cat. No. 08-774-255, Thermo Fisher Scientific, Waltham Mass.) coated with laminin (Cat. No. 23017, Thermo Fisher Scientific, Waltham Mass.) at a density of 8×10^4 cells/cm2. The culture medium was neuronal differentiation medium containing NEUROBASAL™ Medium (Cat. No. 21103, Thermo Fisher Scientific, Waltham Mass.), 2% B27 Supplement (Cat. No. 17504, Thermo Fisher Scientific, Waltham Mass.), 1% GLUTAMAX™ Supplement (Cat. No. 35050, Thermo Fisher Scientific, Waltham Mass.) without or with gamma secretase inhibitor Compound E. Every 2-3 days, half spent medium was removed from each well of the culture plates and the same volume of fresh medium was added into each well. At two weeks of differentiation, cells were fixed with 4% paraformaldehyde and stained with antibodies against neuronal marker HuC&D and astroglial marker glial fibrillary acidic protein (GFAP).
# H9 ESC-derived NSCs [7] = assay: Long-term maintenance of differentiated neuronal cells; type: cell-based, human; conditions: 0.2 micromolar; without inhibitor cells detached at three weeks
# From the text: (§2) To differentiate the NSCs into neuronal cells, cryo-preserved H9 ESC-derived NSCs were thawed and plated on poly-D-lysine 96-well plates (Cat. No. 08-774-255, Thermo Fisher Scientific, Waltham Mass.) coated with laminin (Cat. No. 23017, Thermo Fisher Scientific, Waltham Mass.) at a density of 5×10^4 cells/cm2. The cultures were maintained in the neuronal differentiation medium containing NEUROBASAL™ Medium (Cat. No. 21103, Thermo Fisher Scientific, Waltham Mass.), 2% B27 Supplement (Cat. No. 17504, Thermo Fisher Scientific, Waltham Mass.), 1% GLUTAMAX™ Supplement (Cat. No. 35050, Thermo Fisher Scientific, Waltham Mass.) and 200 micromolar ascorbic acid (Cat. No. A8960, Sigma-Aldrich, St. Louis Mo.) with or without the gamma-secretase inhibitor Compound E (0.2 micromolar, Cat. No. 565790, EMD Millipore, Billerica Mass.). Every 2-3 days, half spent medium was removed from each well of the culture plates and the same volume of fresh medium was added into each well.
# For this study, the differentiation of H9 ESC-derived NSCs was the same as for Example 2. Without presence of the gamma secretase inhibitor during differentiation, neuronal cells detached from the culture plate at three weeks after differentiation as shown by the image of FIG. 7A. This effect may be due to the very high density of proliferated neural stem cells present. […]
# iPSC-derived NSCs = assay: Differentiation of iPSC-derived NSCs, phase images and NESTIN/DCX staining; type: cell-based, human; conditions: 0.1 micromolar
# From the text: Human induced pluripotent stem cells were derived from human fibroblasts using the CYTOTUNE™-iPS 2.0 Sendai Reprogramming Kit (Cat. No. A16517, INVITROGEN™, a part of Thermo Fisher Scientific, Waltham Mass.) and were induced to neural stem cells (NSCs) using the xeno free version of the GIBCO™ PSC Neural Induction Medium (Cat. No. A1647801, Thermo Fisher Scientific, Waltham Mass.).
# To differentiate the NSCs into neuronal cells, cryo-preserved iPSC-derived NSCs were recovered and NSC passage three cells were plated on a 24 well plate (Cat. No. 087721, Thermo Fisher Scientific, Waltham Mass.) coated with human laminin (Cat. No. L6274, Sigma-Aldrich, St. Louis Mo.) at a density of 1˜5×10^4 cells/cm2. The cultures were maintained in neuronal differentiation medium containing NEUROBASAL™ Medium (Cat. No. 21103, Thermo Fisher Scientific, Waltham Mass.), 2% B27 Xeno Free Supplement (Cat. No. A1486701, Thermo Fisher Scientific, Waltham Mass.), 200 micromolar ascorbic acid (Cat. No. A8960, Sigma-Aldrich, St. Louis Mo.) with or without the gamma-secretase inhibitor Compound E (0.1 micromolar, Cat. No. 565790, EMD Millipore, Billerica Mass.). Every 2-3 days, medium was replenished with respective medium.
# […] No. 48-1200, Thermo Fisher Scientific, Waltham Mass.) and the neural stem cell marker NESTIN (Monoclonal, Cat. No. 611658, BD Biosciences, Franklin Lakes N.J.) according to the manufacturers' protocols.
# [8] = system: H9 human ESC-derived NSCs; assay: Differentiation of H9 ESC-derived NSCs, phase-contrast images and MAP2/SOX1 staining; type: cell-based; conditions: Day 14; 0.2 micromolar
# From the text: as §2
# At two weeks of NSC differentiation into neuronal cells, cells were fixed with 4% paraformaldehyde and stained with antibodies against neuronal marker MAP2 (polyclonal, Cat. No. PA5-17646, Thermo Fisher Scientific, Waltham Mass.) and neural stem cell marker SOX1 (polyclonal, Cat. No. AF3369, R&D Systems, Minneapolis Minn.) according to the manufacturers' protocols.
smiles,measurement,setting,value
O=C(O)CC[C@H]1CC[C@@](c2cc(F)ccc2F)(S(=O)(=O)c2ccc(Cl)cc2)CC1 [MK-0752],cell toxicity,H9 ESC-derived NSCs [1],cell toxicity
same,"cell clumping vs control group (cell clump area, FIG. 6)",H9 ESC-derived NSCs [2],significant reduction in cell clumping
same,percentage of cells co-stained positive for HuC/D and negative for SOX1,H9 ESC-derived NSCs [3]; at 20 micromolar,64.7%
"C[C@H](NC(=O)Cc1cc(F)cc(F)c1)C(=O)N[C@H]1N=C(c2ccccc2)c2ccccc2N(C)C1=O [YO-01027, (S,S)-2-[2-(3,5-difluorophenyl)-acetylamino]-N-(1-methyl-2-oxo-5-phenyl-2-,3-dihydro-1H-benzo[e][1,4]diazepin-3-yl)-propionamide]",percentage of cells co-stained positive for HuC/D and negative for SOX1,H9 ESC-derived NSCs [3]; at 0.3 micromolar,73.4%
"C[C@H](NC(=O)[C@@H](O)c1cc(F)cc(F)c1)C(=O)N[C@@H]1C(=O)N(C)c2ccccc2-c2ccccc21 [LY411575, N-2((2S)-2-(3,5-difluorophenyl)-2-hydroxyethanoyl)-N1-((7S)-5-methyl-6-oxo-6,7-dihydro-5H-dibenzo[b,d]azepin-7-yl)-1-alaninamide]","cell clumping vs control group (cell clump area, FIG. 6)",H9 ESC-derived NSCs [2],significant reduction in cell clumping
same,percentage of cells co-stained positive for HuC/D and negative for SOX1,H9 ESC-derived NSCs [3]; at 0.25 micromolar,64.7%
"C[C@H](NC(=O)Cc1cc(F)cc(F)c1)C(=O)N[C@H]1N=C(c2ccccc2)c2ccccc2N(C)C1=O [Compound E, (S,S)-2-[2-(3,5-difluorophenyl)-acetylamino]-N-(1-methyl-2-oxo-5-phenyl-2-,3-dihydro-1H-benzo[e][1,4]diazepin-3-yl)-propionamide]",proliferation of neural stem cells (EdU positive cells),H9 ESC-derived NSCs [4],substantially arrested
same,cell death (caspase 9 positive cells),H9 ESC-derived NSCs [5],no significant amount of cell death
same,reduction in cell count vs control culture,NSC cultures; Day 4,~2.5 fold
same,relative fluorescence units (cell proliferation),"NSC cultures; Day 4, control 0.93",0.36 RFU
same,relative fluorescence units (cell proliferation),"NSC cultures; Day 7, control 2.94",0.55 RFU
same,increase in RFU at Day 7 compared to Day 4,NSC cultures; Day 7 vs Day 4,~1.5 fold
same,relative fluorescence units (cell proliferation),"NSC cultures; Day 14, control 18.7",0.41 RFU
same,relative fluorescence units (cell proliferation),"NSC cultures; Day 21, control 21.5",0.30 RFU
same,reduction in cell clumping,"H9 ESC-derived NSCs [2]; Compound E 0.2 micromolar, two weeks of differentiation, cell mass >=10,000 μm2 counted as clump, vs without inhibitor",90%
same,"cell clumping vs control group (cell clump area, FIG. 6)",H9 ESC-derived NSCs [2],significant reduction in cell clumping
same,percentage of cells co-stained positive for HuC/D and negative for SOX1,H9 ESC-derived NSCs [3]; at 0.2 micromolar,74.9%
same,GFAP positive astrocytes,[6],essentially eliminated
same,time differentiated neuronal cells can be maintained in culture,H9 ESC-derived NSCs [7],at least five weeks
same,neurite outgrowth (phase-contrast),iPSC-derived NSCs; Day 5,extended neurite outgrowth
same,neuronal phenotype (DCX stain),iPSC-derived NSCs; Day 7,most of the cells present have adopted a neuronal phenotype
same,proliferation of NESTIN positive cells,iPSC-derived NSCs; Day 7,substantially retarded
same,proliferating progenitor cells,iPSC-derived NSCs; Day 14,fewer proliferating progenitor cells are present
same,cell clump formation (phase-contrast image),[8],without formation of cell clumps
